According to patent US10617691B2, “Combination of an anti-CD19 antibody and a Bruton's tyrosine kinase inhibitor and uses thereof” (MORPHOSYS AG, priority 2015, dated 2020):

System: MEC-1 cells
Experiment: ADCC target cell killing of MEC-1 cells by NK cells (FACS, DAPI positive dead target cells), MOR00208 and Ibrutinib alone and in combination
Type: cell-based
Method: Cell lines tested: MEC-1 cells (DSMZ # ACC497). Cell lines are tested: chronic B-cell leukemia cell line; JVM-2 (ATCC® CRL-3002) a mantle cell lymphoma cell line; Ramos cells (ATCC number CRL-1596), a human Burkitt's lymphoma cells; HG-3 (DSMZ # ACC765), and CII (DSMZ # ACC773) are a chronic lymphocytic leukemia cell line; Su-DHL 6 (DSMZ # ACC572), U2932 (DSMZ # ACC633) and OCI-LY7 (DSMZ # ACC688) are a Diffuse large B-cell lymphoma (DLBCL) cell line; JVM-2 (ATCC® CRL-3002) is a mantle cell lymphoma cell line; and BALL-1 (DSMZ # ACC742) is an acute lymphoblastic leukemia cell line.
The cytotoxicity of MOR00208 and Ibrutinib alone and in combination were tested in the MEC-1 cell line (CLL). The cytotoxicity of MOR00208 and Ibrutinib alone and in combination are tested in the following target cell lines: JVM-2, Ramos, HG-3, CII, Su-DHL 6, U2932, OCI-LY7, JVM-2 and BALL-1.
Ibrutinib is a covalent inhibitor of Bruton's tyrosine kinase and should abrogate proliferation in target cell lines. MOR00208 targets CD19 and mediates target cell killing via ADCC. Target cell killing is measured using the following parameters: Ibrutinib at a concentration range of between 0.033 and 33 μM, specifically at 0.3 μM, 1.0 μM and 3.0 μM; MOR00208 at a concentration range from 0.001-10 nM, specifically at 0.01 nM, 0.1 nM, and 10 nM, and the combination of MOR00208 and Ibrutinib. The following are used as controls: RefmAb33 or NK cells alone. In the Ibrutinib group as well as in the MOR00208+Ibrutinib combination group, target cells are pre-treated with Ibrutinib for 7 days prior to the ADCC assay measurements. The target cells are counted and stained using 1 μg/ml CFSE end concentration. For DMSO treated target cells, an effector: target (E:T) ratio of 2:1 is chosen, corresponding to a cell density of 5×10^5/ml. The proliferative effect on target cells caused by Ibrutinib treatment was included by adjusting the E:T ratio in inhibitor treated cells. The NK cells are counted and adjusted to 1×10^6/ml. The target cell killing assays were performed as follows: using 96 well plates, 100 μl of target cell suspension was added per well, followed by 100 μl cell suspension of NK cells to each well resulting in an E:T ratio of 2:1. The antibodies were diluted in a range of 10-0.001 nM in medium. Cells were centrifuged and target: effector cell-pellets were re-suspended in 100 μl antibody-containing medium or the according control solution. The assay was incubated for 4 h in CO2-incubator at 37° C. After 10 min incubation on ice, 50 μl DAPI solution was added to each well (final concentration 1 μg/ml) and incubated on ice for 10 min. The cell killing measurements were performed with FACS-Verse. Dead target cells were DAPI positive.
In total, three experiments were performed in order to determine the mediation of ADCC on MEC-1 cells by the combination of MOR00208 and Ibrutinib.
The raw data (% dead cells) are analyzed as follows: 1) from the raw data (% dead cells), the background (controls) are subtracted, resulting in the specific killing for each treatment group; then 2) the specific killing values are normalized by setting the combination of MOR00208+Ibrutinib to 1.
Combination Index (CI) calculations are completed in order to determine synergy of the combination of the exemplified anti-CD19 antibody and Ibrutinib as compared to MOR00208 and Ibrutinib alone. Such calculations are described in Ting-Chao Chou, Theoretical Basis, Experimental Design, and Computerized Simulation of Synergism and Antagonism in Drug Combination Studies, Pharmacol Rev 58:621-681 (2006), which is incorporated by reference in its entirety and Chou T C, Talalay P, Quantitative analysis of dose-effect relationships: the combined effects of multiple drugs or enzyme inhibitors. Adv Enzyme Regul 22: 27-55 (1984), which is incorporated by reference in its entirety. The methods of Chou-Talalay are carried out using the CI-isobol method. […]

[1] = Experiment 1, Ibrutinib at 0.3 μM, MOR00208 0.01 nM, control (0.1% DMSO/Ref33) 25.27
[2] = Experiment 1, Ibrutinib at 0.3 μM, MOR00208 0.1 nM, control (0.1% DMSO/Ref33) 25.27
[3] = Experiment 1, Ibrutinib at 0.3 μM, MOR00208 10 nM, control (0.1% DMSO/Ref33) 25.27
[4] = Experiment 1, Ibrutinib at 1 μM, MOR00208 0.01 nM, control (0.1% DMSO/Ref33) 25.27
[5] = Experiment 1, Ibrutinib at 1 μM, MOR00208 0.1 nM, control (0.1% DMSO/Ref33) 25.27
[6] = Experiment 1, Ibrutinib at 1 μM, MOR00208 10 nM, control (0.1% DMSO/Ref33) 25.27
[7] = Experiment 1, Ibrutinib at 3 μM, MOR00208 0.01 nM, control (0.1% DMSO/Ref33) 25.27
[8] = Experiment 1, Ibrutinib at 3 μM, MOR00208 0.1 nM, control (0.1% DMSO/Ref33) 25.27
[9] = Experiment 1, Ibrutinib at 3 μM, MOR00208 10 nM, control (0.1% DMSO/Ref33) 25.27
[10] = Experiment 2, Ibrutinib at 0.3 μM, MOR00208 0.01 nM, control (0.03% DMSO/Ref33) 9.81
[11] = Experiment 2, Ibrutinib at 0.3 μM, MOR00208 0.1 nM, control (0.03% DMSO/Ref33) 9.81
[12] = Experiment 2, Ibrutinib at 0.3 μM, MOR00208 10 nM, control (0.03% DMSO/Ref33) 9.81
[13] = Experiment 2, Ibrutinib at 1 μM, MOR00208 0.01 nM, control (0.03% DMSO/Ref33) 9.81
[14] = Experiment 2, Ibrutinib at 1 μM, MOR00208 0.1 nM, control (0.03% DMSO/Ref33) 9.81
[15] = Experiment 2, Ibrutinib at 1 μM, MOR00208 10 nM, control (0.03% DMSO/Ref33) 9.81
[16] = Experiment 2, Ibrutinib at 3 μM, MOR00208 0.01 nM, control (0.03% DMSO/Ref33) 9.81
[17] = Experiment 2, Ibrutinib at 3 μM, MOR00208 0.1 nM, control (0.03% DMSO/Ref33) 9.81
[18] = Experiment 2, Ibrutinib at 3 μM, MOR00208 10 nM, control (0.03% DMSO/Ref33) 9.81
[19] = Experiment 3, Ibrutinib at 0.3 μM, MOR00208 0.01 nM, control (0.03% DMSO/Ref33) 16.40
[20] = Experiment 3, Ibrutinib at 0.3 μM, MOR00208 0.1 nM, control (0.03% DMSO/Ref33) 16.40
[21] = Experiment 3, Ibrutinib at 0.3 μM, MOR00208 10 nM, control (0.03% DMSO/Ref33) 16.40
[22] = Experiment 3, Ibrutinib at 1 μM, MOR00208 0.01 nM, control (0.03% DMSO/Ref33) 16.40
[23] = Experiment 3, Ibrutinib at 1 μM, MOR00208 0.1 nM, control (0.03% DMSO/Ref33) 16.40
[24] = Experiment 3, Ibrutinib at 1 μM, MOR00208 10 nM, control (0.03% DMSO/Ref33) 16.40
[25] = Experiment 3, Ibrutinib at 3 μM, MOR00208 0.01 nM, control (0.03% DMSO/Ref33) 16.40
[26] = Experiment 3, Ibrutinib at 3 μM, MOR00208 0.1 nM, control (0.03% DMSO/Ref33) 16.40
[27] = Experiment 3, Ibrutinib at 3 μM, MOR00208 10 nM, control (0.03% DMSO/Ref33) 16.40

| Molecule | percent (%) dead cells (raw data) [1] [%] | percent (%) dead cells (raw data) [2] [%] | percent (%) dead cells (raw data) [3] [%] | percent (%) dead cells (raw data) [4] [%] | percent (%) dead cells (raw data) [5] [%] | percent (%) dead cells (raw data) [6] [%] | percent (%) dead cells (raw data) [7] [%] | percent (%) dead cells (raw data) [8] [%] | percent (%) dead cells (raw data) [9] [%] | percent (%) dead cells (raw data) [10] [%] | percent (%) dead cells (raw data) [11] [%] | percent (%) dead cells (raw data) [12] [%] | percent (%) dead cells (raw data) [13] [%] | percent (%) dead cells (raw data) [14] [%] | percent (%) dead cells (raw data) [15] [%] | percent (%) dead cells (raw data) [16] [%] | percent (%) dead cells (raw data) [17] [%] | percent (%) dead cells (raw data) [18] [%] | percent (%) dead cells (raw data) [19] [%] | percent (%) dead cells (raw data) [20] [%] | further results |
| --- | --- | --- | --- | --- | --- | --- | --- | --- | --- | --- | --- | --- | --- | --- | --- | --- | --- | --- | --- | --- | --- |
| C=CC(=O)N1CCC[C@@H](n2nc(-c3ccc(Oc4ccccc4)cc3)c3c(N)ncnc32)C1 [Ibrutinib, 1-[(3R)-3-[4-amino-3-(4-phenoxyphenyl)-1H-pyrazolo[3,4-d]pyrimidin-1-yl]-1-piperidinyl]-2-propen-1-one] | 21.99 | 21.99 | 21.99 | 24.33 | 24.33 | 24.33 | 17.07 | 17.07 | 17.07 | 8.56 | 8.56 | 8.56 | 8.39 | 8.39 | 8.39 | 10.84 | 10.84 | 10.84 | 8.56 | 8.56 | percent (%) dead cells (raw data) [21]: 8.56%; percent (%) dead cells (raw data) [22]: 7.50%; percent (%) dead cells (raw data) [23]: 7.50%; percent (%) dead cells (raw data) [24]: 7.50%; percent (%) dead cells (raw data) [25]: 8.26%; percent (%) dead cells (raw data) [26]: 8.26%; percent (%) dead cells (raw data) [27]: 8.26% |
| MOR00208: anti-CD19 antibody; heavy chain SEQ ID NO: 14, light chain SEQ ID NO: 15 (antibody) heavy: EVQLVESGGGLVKPGGSLKLSCAASGYTFTSYVMHWVRQAPGKGLEWIGYINPYNDGTKYNEKFQGRVTISSDKSISTAYMELSSLRSEDTAMYYCARGTYYYGTRVFDYWGQGTLVTVSSASTKGPSVFPLAPSSKSTSGGTAALGCLVKDYFPEPVTVSWNSGALTSGVHTFPAVLQSSGLYSLSSVVTVPSSSLGTQTYICNVNHKPSNTKVDKKVEPKSCDKTHTCPPCPAPELLGGPDVFLFPPKPKDTLMISRTPEVTCVVVDVSHEDPEVQFNWYVDGVEVHNAKTKPREEQFNSTFRVVSVLTVVHQDWLNGKEYKCKVSNKALPAPEEKTISKTKGQPREPQVYTLPPSREEMTKNQVSLTCLVKGFYPSDIAVEWESNGQPENNYKTTPPMLDSDGSFFLYSKLTVDKSRWQQGNVFSCSVMHEALHNHYTQKSLSLSPGK light: DIVMTQSPATLSLSPGERATLSCRSSKSLQNVNGNTYLYWFQQKPGQSPQLLIYRMSNLNSGVPDRFSGSGSGTEFTLTISSLEPEDFAVYYCMQHLEYPITFGAGTKLEIKRTVAAPSVFIFPPSDEQLKSGTASVVCLLNNFYPREAKVQWKVDNALQSGNSQESVTEQDSKDSTYSLSSTLTLSKADYEKHKVYACEVTHQGLSSPVTKSFNRGEC | 56.54 | 72.31 | 73.77 | 56.54 | 72.31 | 73.77 | 56.54 | 72.31 | 73.77 | 37.57 | 52.10 | 50.83 | 37.57 | 52.10 | 50.83 | 37.57 | 52.10 | 50.83 | 63.68 | 81.30 | percent (%) dead cells (raw data) [21]: 81.41%; percent (%) dead cells (raw data) [22]: 63.68%; percent (%) dead cells (raw data) [23]: 81.30%; percent (%) dead cells (raw data) [24]: 81.41%; percent (%) dead cells (raw data) [25]: 63.68%; percent (%) dead cells (raw data) [26]: 81.30%; percent (%) dead cells (raw data) [27]: 81.41% |
